Assay [1] concerns the target Rho-associated protein kinase 1 (Homo sapiens) (UniProt Q13464). Briefly: Selectivity interaction (Upstate Kinase Profiler service (Millipore)) EUB0000056c ROCK1. To be noted: at 1 µM.
Assay [2] has as its target T1, Dual specificity mitogen-activated protein kinase kinase 7 (Homo sapiens) (UniProt O14733).
T1 sequence (whole entry): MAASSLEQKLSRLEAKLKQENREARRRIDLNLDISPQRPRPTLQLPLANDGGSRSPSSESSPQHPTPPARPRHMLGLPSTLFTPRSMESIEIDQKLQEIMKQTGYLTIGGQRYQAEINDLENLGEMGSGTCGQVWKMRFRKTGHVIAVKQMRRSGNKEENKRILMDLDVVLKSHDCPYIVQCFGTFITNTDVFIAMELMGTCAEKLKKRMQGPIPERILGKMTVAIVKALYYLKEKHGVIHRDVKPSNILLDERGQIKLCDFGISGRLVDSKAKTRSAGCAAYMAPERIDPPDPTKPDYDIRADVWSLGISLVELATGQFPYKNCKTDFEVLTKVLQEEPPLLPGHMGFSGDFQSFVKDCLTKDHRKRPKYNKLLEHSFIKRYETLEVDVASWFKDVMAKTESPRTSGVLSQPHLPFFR
Briefly: Selectivity interaction (Ambit KINOMEscan and KiNATiv profiling in Jurkat cells) EUB0000090b MAP2K7. The conditions noted are these: at 1 µM. It counts as cell-based.

Assay [3] deals with Activin receptor type-2A (Homo sapiens) (UniProt P27037). Description: Selectivity interaction (Ambit KINOMEscan and KiNATiv profiling in Jurkat cells) EUB0000090b ACVR2A. It counts as cell-based. The conditions noted are these: at 1 µM.
For assay [4], the target named is Proto-oncogene tyrosine-protein kinase receptor Ret (Homo sapiens, UniProt P07949). Briefly: Selectivity interaction (KinaseProfiler screening (Millipore)) EUB0000601a RET. The conditions noted are these: at 3 µM.
In assay [5] the target is Tyrosine-protein kinase Fyn (Homo sapiens) (UniProt P06241). The conditions noted are these: at 10 µM.
The target of assay [6] is Macrophage colony-stimulating factor 1 receptor (Homo sapiens) (UniProt P07333). Description: Selectivity interaction (KinomeScan (DiscoverX)) EUB0000699a CSF1R. The conditions noted are these: at 10 µM.
Sequence of Macrophage colony-stimulating factor 1 receptor (Homo sapiens) (P07333 whole entry): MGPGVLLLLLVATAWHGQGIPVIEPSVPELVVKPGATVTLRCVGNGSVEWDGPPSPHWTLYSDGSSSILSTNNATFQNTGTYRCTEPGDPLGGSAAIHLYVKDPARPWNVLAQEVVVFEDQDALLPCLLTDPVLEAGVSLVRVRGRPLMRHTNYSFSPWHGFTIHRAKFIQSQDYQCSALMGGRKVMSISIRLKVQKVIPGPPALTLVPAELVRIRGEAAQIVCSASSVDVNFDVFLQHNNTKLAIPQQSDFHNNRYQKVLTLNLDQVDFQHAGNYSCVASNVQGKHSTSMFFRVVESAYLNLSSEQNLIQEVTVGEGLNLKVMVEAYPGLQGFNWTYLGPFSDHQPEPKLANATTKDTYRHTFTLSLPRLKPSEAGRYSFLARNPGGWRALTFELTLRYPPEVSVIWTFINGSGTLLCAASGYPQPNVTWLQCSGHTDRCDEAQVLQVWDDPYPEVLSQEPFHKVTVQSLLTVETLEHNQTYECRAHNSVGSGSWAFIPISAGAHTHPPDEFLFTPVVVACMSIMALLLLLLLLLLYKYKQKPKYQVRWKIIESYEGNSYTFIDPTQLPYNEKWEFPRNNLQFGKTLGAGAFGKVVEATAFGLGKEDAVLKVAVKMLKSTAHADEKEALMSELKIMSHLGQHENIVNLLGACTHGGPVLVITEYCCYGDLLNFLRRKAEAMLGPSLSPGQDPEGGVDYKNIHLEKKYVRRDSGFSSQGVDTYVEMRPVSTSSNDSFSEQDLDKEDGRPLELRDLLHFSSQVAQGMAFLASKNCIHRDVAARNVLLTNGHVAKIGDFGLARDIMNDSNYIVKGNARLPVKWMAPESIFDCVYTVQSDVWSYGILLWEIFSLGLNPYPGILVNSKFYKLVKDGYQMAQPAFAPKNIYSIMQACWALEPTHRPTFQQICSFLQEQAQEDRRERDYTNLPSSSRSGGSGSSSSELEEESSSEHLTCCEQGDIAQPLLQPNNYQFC
The target of assay [7] is Ephrin type-A receptor 2 (Homo sapiens) (UniProt P29317). Briefly: Selectivity interaction (KinomeScan (DiscoverX)) EUB0000045b EPHA2.
Sequence of Ephrin type-A receptor 2 (Homo sapiens) (P29317 whole entry, canonical isoform): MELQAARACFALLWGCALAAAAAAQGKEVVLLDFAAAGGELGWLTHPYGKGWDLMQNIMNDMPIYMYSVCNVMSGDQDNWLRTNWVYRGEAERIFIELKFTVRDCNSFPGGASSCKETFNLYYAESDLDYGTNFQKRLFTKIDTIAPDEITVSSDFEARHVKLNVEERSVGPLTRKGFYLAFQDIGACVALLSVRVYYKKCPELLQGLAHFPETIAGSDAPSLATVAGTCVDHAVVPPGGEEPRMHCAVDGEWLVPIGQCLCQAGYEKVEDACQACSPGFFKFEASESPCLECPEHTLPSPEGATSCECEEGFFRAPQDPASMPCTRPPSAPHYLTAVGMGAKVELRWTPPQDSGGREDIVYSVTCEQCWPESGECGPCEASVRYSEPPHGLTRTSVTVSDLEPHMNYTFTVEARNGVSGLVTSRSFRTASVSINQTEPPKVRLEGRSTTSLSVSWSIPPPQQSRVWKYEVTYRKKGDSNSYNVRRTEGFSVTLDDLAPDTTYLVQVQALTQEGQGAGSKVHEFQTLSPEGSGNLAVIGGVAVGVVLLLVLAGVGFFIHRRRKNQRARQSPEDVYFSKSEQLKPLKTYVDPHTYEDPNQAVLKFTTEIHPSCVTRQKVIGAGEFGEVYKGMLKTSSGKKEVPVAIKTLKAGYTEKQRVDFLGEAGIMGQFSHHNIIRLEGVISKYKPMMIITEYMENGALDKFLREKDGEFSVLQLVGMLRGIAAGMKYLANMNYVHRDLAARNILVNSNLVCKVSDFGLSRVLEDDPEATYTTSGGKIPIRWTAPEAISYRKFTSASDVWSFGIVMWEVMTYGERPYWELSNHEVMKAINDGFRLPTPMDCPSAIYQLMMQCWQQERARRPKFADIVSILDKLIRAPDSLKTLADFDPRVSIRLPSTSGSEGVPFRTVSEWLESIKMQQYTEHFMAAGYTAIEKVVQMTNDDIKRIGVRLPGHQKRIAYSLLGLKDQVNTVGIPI
Assay [8] has as its target Phosphatidylinositol 4,5-bisphosphate 3-kinase catalytic subunit alpha isoform (Homo sapiens) (UniProt P42336). Briefly: Selectivity interaction (Adapta Assay) EUB0001632a PIK3CA. To be noted: at 10 µM.
The target of assay [9] is Tyrosine-protein kinase Fgr (Homo sapiens) (UniProt P09769). Briefly: Selectivity interaction (KinomeScan (DiscoverX)) EUB0000607a FGR. The conditions noted are these: at 10 µM.
Sequence of Tyrosine-protein kinase Fgr (Homo sapiens) (P09769 2-529 limits assumed): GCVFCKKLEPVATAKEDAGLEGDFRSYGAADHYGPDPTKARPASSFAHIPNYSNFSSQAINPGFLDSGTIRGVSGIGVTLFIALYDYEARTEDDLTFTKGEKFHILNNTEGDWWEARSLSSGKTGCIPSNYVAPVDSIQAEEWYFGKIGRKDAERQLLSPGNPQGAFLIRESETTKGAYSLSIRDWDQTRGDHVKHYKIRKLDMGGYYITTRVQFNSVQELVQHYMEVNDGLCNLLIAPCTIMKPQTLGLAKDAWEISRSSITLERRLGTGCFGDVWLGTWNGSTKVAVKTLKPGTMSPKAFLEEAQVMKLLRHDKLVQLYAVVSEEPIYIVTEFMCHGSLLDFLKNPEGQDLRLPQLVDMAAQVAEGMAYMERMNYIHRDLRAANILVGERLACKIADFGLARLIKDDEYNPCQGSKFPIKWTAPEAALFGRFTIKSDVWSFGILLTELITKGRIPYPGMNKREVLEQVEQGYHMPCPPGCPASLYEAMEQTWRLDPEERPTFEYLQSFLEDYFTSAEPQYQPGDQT
The test system of assay [10] is Epidermal growth factor receptor (Homo sapiens), P00533 [L858R]. Briefly: Selectivity interaction (SelectScreen profiling (Invitrogen)) EUB0000607a EGFR. To be noted: at 2 µM.
For assay [11], the target named is Platelet-derived growth factor receptor beta (Homo sapiens, UniProt P09619). Description: Selectivity interaction (SelectScreen profiling (Invitrogen)) EUB0000607a PDGFRB. The conditions noted are these: at 2 µM.
In assay [12] the target is Tyrosine-protein kinase SYK (Homo sapiens, UniProt P43405). Briefly: Selectivity interaction (ActivX KiNativ screen (kinase selectivity in THP-1 cell lysates)) EUB0000639a SYK. It counts as subcellular. To be noted: lysate, at 5 µM.
Assay [13] addresses Serine/threonine-protein kinase MRCK beta (Homo sapiens) (UniProt Q9Y5S2). Description: Selectivity interaction (KinomeScan (DiscoverX)) EUB0000229b CDC42BPB. The conditions noted are these: at 10 µM.
Assay [14] addresses Serine/threonine-protein kinase Nek7 (Homo sapiens) (UniProt Q8TDX7). Description: Selectivity interaction (ActivX KiNativ screen (ex vivo kinase selectivity in human PBMCs)) EUB0001619a NEK7. The format is cell-based. To be noted: PBMC, at 1 µM.
Assay [15] has as its target Cyclin-dependent kinase 2 (Homo sapiens, UniProt P24941). Briefly: Selectivity interaction (ActivX KiNativ screen (ex vivo kinase selectivity in human PBMCs)) EUB0001619a CDK2. It counts as cell-based. The conditions noted are these: PBMC, at 1 µM.
For assay [16], the target named is Tyrosine-protein kinase ABL1 (Homo sapiens, UniProt P00519). Description: Selectivity interaction (Kinase panel (literature)) EUB0001199aCl ABL1. The conditions noted are these: at 1 µM.
Assay [17] deals with T2, Tyrosine-protein kinase ITK/TSK (Homo sapiens) (UniProt Q08881).
T2 sequence (whole entry): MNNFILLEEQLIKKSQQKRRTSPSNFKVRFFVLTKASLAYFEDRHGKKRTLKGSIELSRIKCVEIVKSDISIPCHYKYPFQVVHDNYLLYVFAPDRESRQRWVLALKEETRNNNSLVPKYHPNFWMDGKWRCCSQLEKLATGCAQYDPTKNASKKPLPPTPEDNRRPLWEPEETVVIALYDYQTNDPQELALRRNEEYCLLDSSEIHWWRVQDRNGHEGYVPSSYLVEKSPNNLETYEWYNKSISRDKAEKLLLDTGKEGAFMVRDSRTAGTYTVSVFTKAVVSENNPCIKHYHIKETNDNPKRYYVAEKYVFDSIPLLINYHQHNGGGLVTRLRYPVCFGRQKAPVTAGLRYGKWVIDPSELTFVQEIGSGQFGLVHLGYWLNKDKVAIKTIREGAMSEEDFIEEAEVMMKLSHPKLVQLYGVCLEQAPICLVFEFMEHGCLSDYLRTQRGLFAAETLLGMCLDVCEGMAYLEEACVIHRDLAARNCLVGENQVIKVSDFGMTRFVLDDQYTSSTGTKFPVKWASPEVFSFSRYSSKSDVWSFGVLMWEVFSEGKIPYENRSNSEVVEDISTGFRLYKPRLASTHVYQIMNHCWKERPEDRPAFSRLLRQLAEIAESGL
Briefly: Selectivity interaction (Kinase panel (KiNativ target engagement assay in Jurkat cells)) EUB0001635a ITK. To be noted: at 1 µM. The format is cell-based.

Sequence of Phosphatidylinositol 4,5-bisphosphate 3-kinase catalytic subunit alpha isoform (Homo sapiens) (P42336 whole entry, canonical isoform): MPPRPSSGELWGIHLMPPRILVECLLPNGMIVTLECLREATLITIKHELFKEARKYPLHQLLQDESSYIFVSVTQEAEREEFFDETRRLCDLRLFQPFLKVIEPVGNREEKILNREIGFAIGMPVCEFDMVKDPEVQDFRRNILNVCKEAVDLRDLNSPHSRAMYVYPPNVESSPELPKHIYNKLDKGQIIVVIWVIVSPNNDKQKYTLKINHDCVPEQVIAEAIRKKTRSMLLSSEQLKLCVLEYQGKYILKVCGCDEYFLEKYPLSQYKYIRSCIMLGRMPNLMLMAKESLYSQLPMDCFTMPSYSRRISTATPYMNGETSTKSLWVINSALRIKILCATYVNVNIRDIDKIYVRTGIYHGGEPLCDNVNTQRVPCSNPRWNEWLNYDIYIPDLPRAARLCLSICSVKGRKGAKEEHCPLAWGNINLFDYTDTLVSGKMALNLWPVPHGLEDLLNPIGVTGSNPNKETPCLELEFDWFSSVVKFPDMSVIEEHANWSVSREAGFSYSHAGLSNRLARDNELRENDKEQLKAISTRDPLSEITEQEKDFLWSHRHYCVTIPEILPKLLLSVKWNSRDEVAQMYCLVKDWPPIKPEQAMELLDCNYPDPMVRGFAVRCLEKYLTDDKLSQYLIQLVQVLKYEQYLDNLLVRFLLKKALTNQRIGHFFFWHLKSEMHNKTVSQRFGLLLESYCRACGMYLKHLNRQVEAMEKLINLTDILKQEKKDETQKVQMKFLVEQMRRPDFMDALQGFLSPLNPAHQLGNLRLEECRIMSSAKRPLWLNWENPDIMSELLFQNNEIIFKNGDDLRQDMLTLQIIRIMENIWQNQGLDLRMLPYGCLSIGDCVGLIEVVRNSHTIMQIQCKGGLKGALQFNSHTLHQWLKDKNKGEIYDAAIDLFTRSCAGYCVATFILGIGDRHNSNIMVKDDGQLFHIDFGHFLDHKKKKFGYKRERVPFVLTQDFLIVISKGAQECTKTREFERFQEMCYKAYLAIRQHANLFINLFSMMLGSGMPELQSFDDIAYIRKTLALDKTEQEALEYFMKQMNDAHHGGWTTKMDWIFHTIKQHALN
Sequence of Rho-associated protein kinase 1 (Homo sapiens) (Q13464 2-1354 limits assumed): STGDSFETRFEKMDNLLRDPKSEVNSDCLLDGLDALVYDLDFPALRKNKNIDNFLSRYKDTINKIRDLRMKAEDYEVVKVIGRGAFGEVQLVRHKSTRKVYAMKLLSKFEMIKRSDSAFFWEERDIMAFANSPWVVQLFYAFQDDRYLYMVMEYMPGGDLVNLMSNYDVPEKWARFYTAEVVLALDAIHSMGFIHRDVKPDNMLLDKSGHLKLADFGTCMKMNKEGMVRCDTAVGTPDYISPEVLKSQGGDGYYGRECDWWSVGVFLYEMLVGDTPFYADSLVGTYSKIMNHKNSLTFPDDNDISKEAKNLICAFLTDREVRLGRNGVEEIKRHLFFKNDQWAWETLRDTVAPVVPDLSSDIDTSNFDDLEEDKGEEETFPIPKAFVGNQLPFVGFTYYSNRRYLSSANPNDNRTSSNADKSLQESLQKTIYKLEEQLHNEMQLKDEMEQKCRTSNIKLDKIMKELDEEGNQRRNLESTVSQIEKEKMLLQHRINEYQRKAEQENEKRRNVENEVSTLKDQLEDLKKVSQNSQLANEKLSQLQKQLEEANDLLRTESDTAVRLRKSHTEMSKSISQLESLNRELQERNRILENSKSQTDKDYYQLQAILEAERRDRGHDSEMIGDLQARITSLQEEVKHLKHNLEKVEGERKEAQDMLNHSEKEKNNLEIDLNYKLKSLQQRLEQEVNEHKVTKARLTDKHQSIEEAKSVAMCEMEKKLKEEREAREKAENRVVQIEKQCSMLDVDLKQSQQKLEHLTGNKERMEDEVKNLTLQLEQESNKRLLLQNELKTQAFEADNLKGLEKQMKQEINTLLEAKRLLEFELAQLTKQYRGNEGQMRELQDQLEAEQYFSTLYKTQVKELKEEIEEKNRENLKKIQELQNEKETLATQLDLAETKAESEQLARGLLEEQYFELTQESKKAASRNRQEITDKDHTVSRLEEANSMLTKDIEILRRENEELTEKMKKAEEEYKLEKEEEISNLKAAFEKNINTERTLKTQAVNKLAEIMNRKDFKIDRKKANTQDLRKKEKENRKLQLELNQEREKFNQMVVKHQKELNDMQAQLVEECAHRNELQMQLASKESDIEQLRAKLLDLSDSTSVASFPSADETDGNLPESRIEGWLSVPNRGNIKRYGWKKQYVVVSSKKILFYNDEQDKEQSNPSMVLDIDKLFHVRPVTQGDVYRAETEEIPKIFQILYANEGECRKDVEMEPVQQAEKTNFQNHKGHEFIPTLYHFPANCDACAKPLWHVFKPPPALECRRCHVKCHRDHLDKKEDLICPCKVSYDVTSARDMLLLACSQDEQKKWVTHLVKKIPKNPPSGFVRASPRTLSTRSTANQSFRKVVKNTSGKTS

With `Cc1ccc(-c2ccc3c(ccc4sc5c(c43)NC[C@@H](C)NC5=O)n2)cn1`, in assay [1], the % of inhibition was -13%. For the molecule `CN(C)C/C=C/C(=O)Nc1ccc(C(=O)N2CCCC(Nc3ncc(Cl)c(-c4c[nH]c5ccccc45)n3)C2)cc1` (centres undefined), the values for the % of control in [2] and in [3] were 100% and 83%, respectively. Turning to `CCc1cc(Nc2nccc(-c3c(-c4ccc(OC)c(C(=O)Nc5c(F)cccc5F)c4)nc4ccccn34)n2)c(OC)cc1N1CCC(N2CCN(S(C)(=O)=O)CC2)CC1`, the % of inhibition in [4] was 52%. With `CCN(CC)CCCCNc1ncc2cc(-c3cc(OC)cc(OC)c3)c(NC(=O)NC(C)(C)C)nc2n1`, the figures for the % of control in assay [5] and in assay [6] were 100% and 6.6%, respectively. As to `C=CC(=O)Nc1cc(-n2c(=O)ccc3cnc4ccc(-c5ccc(NS(C)(=O)=O)cc5)cc4c32)ccc1C`, the % of control in assay [7] (at 1 µM) and in [7] (at 10 µM) was 100% each time. Take `Cn1cc(-n2cnc3c(NCc4nc5cc(Cl)c(Cl)cc5[nH]4)nc(N4CCOCC4)nc32)cn1`: the % of inhibition in [8] amounted to 37.1%.

Molecule `CNC(=O)Nc1ccc(-c2nc(N3CC4CCC(C3)O4)c3cnn(C4CCC5(CC4)OCCO5)c3n2)cc1` displayed a % of control in assay [9] of 100%. The % of inhibition in assay [10] came out at 3%; in [11] it was 2%. Regarding `CC[C@@H]1[C@H](F)C(=O)N[C@@H]1COc1nccc2cc(C(N)=O)c(OC)cc12` [ZIMLOVISERTIB], the % of inhibition in assay [12] was -8.7%.

In the case of `COc1cc(N(C)c2ccnc3ccc(C(F)(F)F)cc23)cc(OC)c1OC`, in [13], the % binding is 100%.

`N#Cc1cccc(-c2c[nH]c3ncnc(N4CCOCC4)c23)c1`: the values for the % of inhibition in [14] and in [15] were -5% and 9%, respectively. `CN1Cc2nccc(-c3cn(C)nc3-c3ccc(F)cc3)c2C1=O`: the % of inhibition in [16] worked out at 1%. With `C=CC(=O)Nc1ccc(C(=O)Nc2[nH]nc3c2CN(C(=O)N[C@H](CN(C)C)c2ccccc2)C3(C)C)cc1`, the % of engagement is 0.3% in [17] (Selectivity number of off-targets 0.0, Selectivity number of targets 233.0, Source Knowledge https://www.sciencedirect.com/science/article/pii/S2451945619300674?via%3Dihub) and 2.5% in assay [17].

These data come from ChEMBL document CHEMBL5465560, “Selectivity Literature for EUbOPEN Chemogenomic Library” (2024).
